Several values for one entry are separate records, joined by “and”; a condition that tells them apart may be missing. Equal values may be shown once. Inconclusive results and toxic doses are left out.
Tested on: L1210 leukemia ip in BDF1 mice, survival T/C
Experiment: NCI In Vivo Anticancer Drug Screen. Data for tumor model L1210 Leukemia (intraperitoneal) in B6D2F1 (BDF1) mice
Settings: endpoint: mean survival time, higher = longer survival
Summary of the method: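 Each compound was tested against a transplantable tumor grown in mice. The endpoint was survival, with treated animals benchmarked against vehicle controls as a simple ratio.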

[1] = dose: 50.0 mg/kg/injection, schedule: Q01DX009 (ip), vehicle: Klucel (hydroxypropylcellulose) (HPC)
[2] = dose: 100.0 mg/kg/injection, schedule: Q01DX009 (ip), vehicle: Klucel (hydroxypropylcellulose) (HPC)
[3] = dose: 25.0 mg/kg/injection, schedule: Q01DX009 (ip), vehicle: saline
[4] = dose: 200.0 mg/kg/injection, schedule: Q01DX009 (ip), vehicle: Klucel (hydroxypropylcellulose) (HPC)
[5] = dose: 400.0 mg/kg/injection, schedule: Q01DX009 (ip), vehicle: Klucel (hydroxypropylcellulose) (HPC)
[6] = dose: 100.0 mg/kg/injection, schedule: Q04DX003 (ip), vehicle: Klucel (hydroxypropylcellulose) (HPC)
[7] = dose: 200.0 mg/kg/injection, schedule: Q04DX003 (ip), vehicle: Klucel (hydroxypropylcellulose) (HPC)
[8] = dose: 400.0 mg/kg/injection, schedule: Q04DX003 (ip), vehicle: Klucel (hydroxypropylcellulose) (HPC)
[9] = dose: 100.0 mg/kg/injection, schedule: Q04DX003 (ip), vehicle: saline with Tween-80
[10] = dose: 200.0 mg/kg/injection, schedule: Q04DX003 (ip), vehicle: saline with Tween-80
[11] = dose: 400.0 mg/kg/injection, schedule: Q04DX003 (ip), vehicle: saline with Tween-80
[12] = dose: 100.0 mg/kg/injection, schedule: Q01DX001 (ip), vehicle: saline
[13] = dose: 6.25 mg/kg/injection, schedule: Q01DX009 (ip), vehicle: saline

For `CCN(CC)c1ccc(C2NC(=O)c3ccccc3N2)cc1` (centres undefined), the T/C [1] was 106 % of control and 108 % of control, the T/C [2] was 116 % of control and the T/C (dose: 150.0 mg/kg/injection, schedule: Q01DX009 (ip), vehicle: Klucel (hydroxypropylcellulose) (HPC)) was 104 % of control and 117 % of control.
For `Cc1cccc(C2NC(=S)N3C(c4cccc(C)c4)NC(=S)N23)c1` (centres undefined), the T/C (dose: 100.0 mg/kg/injection, schedule: Q01DX009 (ip), vehicle: gum acacia) was 100 % of control, the T/C (dose: 100.0 mg/kg/injection, schedule: Q04DX003 (ip), vehicle: gum acacia) was 88 % of control and the T/C (dose: 200.0 mg/kg/injection, schedule: Q01DX009 (ip), vehicle: gum acacia) was 100 % of control. The T/C (dose: 200.0 mg/kg/injection, schedule: Q04DX003 (ip), vehicle: gum acacia) was 88 % of control, the T/C (dose: 400.0 mg/kg/injection, schedule: Q01DX009 (ip), vehicle: gum acacia) was 91 % of control and the T/C (dose: 400.0 mg/kg/injection, schedule: Q04DX003 (ip), vehicle: gum acacia) was 87 % of control.
In the case of `FC(F)(F)COP1(OCC(F)(F)F)=NP(OCC(F)(F)F)(OCC(F)(F)F)=NP(c2ccccc2)(c2ccccc2)=N1`, the T/C [3] is reported as 93 % of control, the T/C (dose: 50.0 mg/kg/injection, schedule: Q01DX009 (ip), vehicle: saline) is reported as 96 % of control and the T/C (dose: 100.0 mg/kg/injection, schedule: Q01DX009 (ip), vehicle: saline) is reported as 86 % of control.
In the case of `CCOC(=O)c1cc(Cl)nc2ccc3ccccc3c12`, the T/C [2] is reported as 101 % of control, the T/C [4] is reported as 97 % of control and the T/C [5] is reported as 96 % of control.
In the case of `CC(C#N)(/C=C/c1ccccc1)Nc1ccccc1N` (centres undefined), the T/C [2] is reported as 95 % of control, the T/C [6] is reported as 94 % of control and the T/C [4] is reported as 95 % of control. The T/C [7] was 98 % of control, the T/C [5] was 96 % of control and the T/C [8] was 93 % of control.
With `CCCCCCCC/C=N/Nc1nnc(N/N=C/CCCCCCCC)c2ccccc12` the T/C (dose: 50.0 mg/kg/injection, schedule: Q01DX001 (ip), vehicle: carboxymethylcellulose (CMC)) was 108 % of control, the T/C (dose: 100.0 mg/kg/injection, schedule: Q01DX001 (ip), vehicle: carboxymethylcellulose (CMC)) was 114 % of control and the T/C (dose: 177.0 mg/kg/injection, schedule: Q01DX001 (ip), vehicle: carboxymethylcellulose (CMC)) was 93 % of control and 111 % of control. For the same compound, the T/C (dose: 200.0 mg/kg/injection, schedule: Q01DX001 (ip), vehicle: carboxymethylcellulose (CMC)) was 114 % of control, the T/C (dose: 266.0 mg/kg/injection, schedule: Q01DX001 (ip), vehicle: carboxymethylcellulose (CMC)) was 119 % of control and the T/C (dose: 400.0 mg/kg/injection, schedule: Q01DX001 (ip), vehicle: carboxymethylcellulose (CMC)) was 102 % of control. For the same compound, the T/C (dose: 600.0 mg/kg/injection, schedule: Q01DX001 (ip), vehicle: carboxymethylcellulose (CMC)) was 101 % of control.
With `N#CCCNC(Cc1ccc(O)cc1)C(=O)O` (centres undefined) the T/C (dose: 12.5 mg/kg/injection, schedule: Q04DX003 (ip), vehicle: Klucel (hydroxypropylcellulose) (HPC)) was 104 % of control, the T/C (dose: 25.0 mg/kg/injection, schedule: Q01DX009 (ip), vehicle: Klucel (hydroxypropylcellulose) (HPC)) was 104 % of control and the T/C (dose: 25.0 mg/kg/injection, schedule: Q04DX003 (ip), vehicle: Klucel (hydroxypropylcellulose) (HPC)) was 98 % of control. For the same compound, the T/C [1] was 95 % of control, the T/C (dose: 50.0 mg/kg/injection, schedule: Q04DX003 (ip), vehicle: Klucel (hydroxypropylcellulose) (HPC)) was 104 % of control and the T/C [2] was 106 % of control. The T/C [6] was 100 % of control.
In the case of `COc1ccc2c(c1)CCC1CC(=O)C=C21` (centres undefined), the T/C (dose: 100.0 mg/kg/injection, schedule: Q01DX009 (ip), vehicle: saline sonified) is reported as 113 % of control, the T/C (dose: 200.0 mg/kg/injection, schedule: Q01DX009 (ip), vehicle: saline sonified) is reported as 103 % of control and the T/C (dose: 400.0 mg/kg/injection, schedule: Q01DX009 (ip), vehicle: saline sonified) is reported as 104 % of control.
For `CC(=O)NC(C)C#N` (centres undefined), the T/C [9] was 103 % of control, the T/C [10] was 95 % of control and the T/C [11] was 95 % of control.
`O=C(Nc1ccc([N+](=O)[O-])cc1Cl)Oc1ccc(Br)cc1Br` was tested, and the T/C [9] was 100 % of control, the T/C [10] was 95 % of control and the T/C [11] was 100 % of control.
In the case of `CC(=O)Oc1ccc(C2CC(=O)N(CCN(C)C)C2=O)cc1` (centres undefined), the T/C [12] is reported as 107 % of control, the T/C (dose: 200.0 mg/kg/injection, schedule: Q01DX001 (ip), vehicle: saline) is reported as 90 % of control and the T/C (dose: 400.0 mg/kg/injection, schedule: Q01DX001 (ip), vehicle: saline) is reported as 100 % of control.
`CCCc1ccc2c(c1)CCCC2` was tested, and the T/C [2] was 94 % of control, the T/C [6] was 94 % of control and the T/C [4] was 90 % of control. For the same compound, the T/C [7] was 93 % of control, the T/C [5] was 97 % of control and the T/C [8] was 94 % of control.
In the case of `Cc1ccccc1OC(=O)c1ccccc1`, the T/C [9] is reported as 107 % of control, the T/C [10] is reported as 104 % of control and the T/C [11] is reported as 104 % of control.
For `Nc1ncn(C2CC(O)C(CO)O2)c(=O)n1` (centres undefined), the T/C (dose: 0.05 mg/kg/injection, schedule: Q01DX005 (ip), vehicle: saline) was 155 % of control, the T/C (dose: 0.12 mg/kg/injection, schedule: Q01DX005 (ip), vehicle: saline) was 154 % of control and the T/C (dose: 0.78 mg/kg/injection, schedule: Q01DX005 (ip), vehicle: saline) was 94 % of control. The T/C (dose: 1.56 mg/kg/injection, schedule: Q01DX005 (ip), vehicle: saline) was 98 % of control, the T/C (dose: 1.56 mg/kg/injection, schedule: Q01DX009 (ip), vehicle: saline) was 114 % of control and the T/C (dose: 3.12 mg/kg/injection, schedule: Q01DX005 (ip), vehicle: saline) was 100 % of control. For the same compound, the T/C (dose: 3.12 mg/kg/injection, schedule: Q01DX009 (ip), vehicle: saline) was 100 % of control, the T/C [13] was 86 % of control and the T/C [12] was 171 % of control. For the same compound, the T/C (dose: 100.0 mg/kg/injection, schedule: Q01DX005 (ip), vehicle: saline) was 167 % of control and 174 % of control, the T/C (dose: 200.0 mg/kg/injection, schedule: Q01DX005 (ip), vehicle: saline) was 174 % of control and 198 % of control and the T/C (dose: 300.0 mg/kg/injection, schedule: Q04DX003 (ip), vehicle: saline) was 167 % of control.
`Cc1cc(OCCOC(=O)Nc2ccc(F)cc2)ccc1Cl` was tested, and the T/C [2] was 106 % of control, the T/C [4] was 101 % of control and the T/C [5] was 101 % of control.
For `CCN(CC)CCC1CCNCC1`, the T/C [13] was 101 % of control, the T/C (dose: 12.5 mg/kg/injection, schedule: Q01DX009 (ip), vehicle: saline) was 95 % of control and the T/C (dose: 12.5 mg/kg/injection, schedule: Q04DX003 (ip), vehicle: saline) was 100 % of control. The T/C [3] was 98 % of control and the T/C (dose: 25.0 mg/kg/injection, schedule: Q04DX003 (ip), vehicle: saline) was 96 % of control.
In the case of `NC(=O)c1ccccc1OC(=O)Nc1ccc(F)c([N+](=O)[O-])c1`, the T/C [2] is reported as 97 % of control, the T/C [4] is reported as 104 % of control and the T/C [5] is reported as 101 % of control.
With `CCN(CC)CCNc1ccc(CO)c2oc3cc(Cl)ccc3c(=O)c12` the T/C (dose: 31.25 mg/kg/injection, schedule: Q01DX009 (ip), vehicle: Klucel (hydroxypropylcellulose) (HPC)) was 94 % of control, the T/C (dose: 62.5 mg/kg/injection, schedule: Q01DX009 (ip), vehicle: Klucel (hydroxypropylcellulose) (HPC)) was 100 % of control and the T/C (dose: 125.0 mg/kg/injection, schedule: Q01DX009 (ip), vehicle: Klucel (hydroxypropylcellulose) (HPC)) was 96 % of control.
With `NC(N)=N/N=C/c1ccccn1` the T/C (dose: 15.0 mg/kg/injection, schedule: Q01DX Z (ip), vehicle: saline) was 94 % of control, the T/C (dose: 30.0 mg/kg/injection, schedule: Q01DX Z (ip), vehicle: saline) was 102 % of control and the T/C (dose: 60.0 mg/kg/injection, schedule: Q01DX Z (ip), vehicle: saline) was 95 % of control and 101 % of control. For the same compound, the T/C (dose: 60.0 mg/kg/injection, schedule: Q01DX Z (oral), vehicle: saline) was 103 % of control, the T/C (dose: 120.0 mg/kg/injection, schedule: Q01DX Z (ip), vehicle: saline) was 96 % of control and 98 % of control and the T/C (dose: 120.0 mg/kg/injection, schedule: Q01DX Z (oral), vehicle: saline) was 108 % of control. For the same compound, the T/C (dose: 240.0 mg/kg/injection, schedule: Q01DX Z (oral), vehicle: saline) was 103 % of control and the T/C (dose: 480.0 mg/kg/injection, schedule: Q01DX Z (oral), vehicle: saline) was 107 % of control.
With `CSc1nc(N)cc(NC(=O)CCl)n1` the T/C [1] was 101 % of control, the T/C [2] was 102 % of control and the T/C [6] was 92 % of control. The T/C [7] was 92 % of control.
`CC1CN=C(c2ccc(Br)cc2)O1` (centres undefined) was tested, and the T/C (dose: 100.0 mg/kg/injection, schedule: Q01DX009 (ip), vehicle: saline with Tween-80) was 105 % of control and the T/C (dose: 200.0 mg/kg/injection, schedule: Q01DX009 (ip), vehicle: saline with Tween-80) was 89 % of control.
In the case of `CCCCCCCC[Si](Br)(CCCCCCCC)CCCCCCCC`, the T/C (dose: 75.0 mg/kg/injection, schedule: Q01DX001 (ip), vehicle: acetone) is reported as 98 % of control, the T/C (dose: 150.0 mg/kg/injection, schedule: Q01DX001 (ip), vehicle: acetone) is reported as 93 % of control and the T/C (dose: 300.0 mg/kg/injection, schedule: Q01DX001 (ip), vehicle: acetone) is reported as 96 % of control.
